{
  "source": "patent US5721209A",
  "about": "“Iron chelator and inhibitor of iron-mediated oxidant injury” (The Regents of the University of California, priority 1995, dated 1998)",
  "origin": "cited, not measured here",
  "key": {"[1]": {"conditions": "prior known iron chelator"}, "neuroblastoma cells": {"tested_on": "neuroblastoma cells", "conditions": "removal of iron; growth of normal cells not similarly affected"}, "ischemic myocardium": {"tested_on": "ischemic myocardium", "conditions": "for prevention of reperfusion injury / myocardial infarct size: administered prior to reperfusion / prior to occurrence of the myocardial infarct"}, "[2]": {"conditions": "according to Macham"}},
  "note": "Where two headings read alike, the source gives them in different places.",
  "data": [
    {"compound": "O=C(O)CN(CCN(CC(=O)O)CC(=O)O)CC(=O)O", "note": "[EDTA]", "values": [
      {"measurement": "prevention of (.cndot.OH) production by the Fenton reaction", "setting": "[1]", "result": "do not prevent (.cndot.OH) production by the Fenton reaction"}
    ]},
    {"compound": "CC(=O)N(O)CCCCCNC(=O)CCC(=O)N(O)CCCCCNC(=O)CCC(=O)N(O)CCCCCN", "note": "[deferoxamine]", "values": [
      {"measurement": "growth of neuroblastoma cells", "setting": "neuroblastoma cells", "result": "negatively affected"},
      {"measurement": "prevention of reperfusion injury", "setting": "ischemic myocardium; administered at or after the onset of reperfusion", "result": "ineffective"},
      {"measurement": "prevention of reperfusion injury / myocardial infarct size", "setting": "ischemic myocardium", "result": "prevents injury and reduces myocardial infarct size"},
      {"measurement": "prevention of reperfusion injury / myocardial infarct size", "setting": "ischemic myocardium; listed as Desferoxamine", "result": "effective"}
    ]},
    {"compound": "mycobactin", "values": [
      {"measurement": "solubility", "setting": "[2]", "result": "water insoluble"}
    ]}
  ]
}
